Key:
Format in all cases: cell-based, Pseudomonas aeruginosa
[1] = system: rhl quorum sensing system; experiment: rhl quorum sensing gene reporter assay (prhlI-LVAgfp); settings: natural autoinducers present
Excerpt: (§1) The ability of the maltoside derivatives to antagonize the two quorum sensing circuits las and/or rhl of P. aeruginosa was investigated by using two reporter strains (PAO1/plasI-LVAgfp, PAO1/prhlI-LVAgfp). These reporter strains produce natural AHL signals, and binding of such signal molecules to the Lux-type receptor proteins ([…]) activates the expression of green fluorescent protein (GFP) encoded by the plasmid.
(§2) One of the recent approach for a nonmicrobicidal control of biofilm aims to develop agents that disrupt bacterial cell-to-cell communication by acting as mimics to the natural molecules (autoinducer) that bind […], which are encoded by las and rhl gene. The binding of these mimics with lasR and rhlR proteins either activates or represses the expression of lasI or rhlI.^6 In gene reporter assay, the expression of lasI and rhlI proteins is quantified by measuring expression of green fluorescent protein (GFP) fused to lasI and rhlI genes.^5 Two reporter strains of Pseudomonas aeruginosa (PAO1/plasI_LVAgfp and PAO1/prhlI_LVAgfp) express green fluorescence protein on activation of las or rhl quorum sensing system. The activation or repression of las or rhl quorum sensing system in PA was tested by various DSHs.
(§3) Strains PAO1/plasI-LVAgfp and PAO1/prhlI-LVAgfp were grown overnight in LB-media that was supplemented with 300 μg/mL carbenicillin and after 16 hours, the bacteria were sub cultured in LB media (supplemented with 300 μg/mL carbenicillin) to OD600 as 0.01. The OD600 was allowed to reach 0.1 and then 200 μL of culture was aliquoted into the wells of 96-well microtiter plate. DSHs were then added to assigned wells at two different concentrations (85 μM and 160 μM). No agent was added to the well for positive control. The plates then incubated at 37° C. for 24 h in a rotary shaking incubator (250 rpm). The culture from each well was then transferred to corresponding wells of a black walled flat-bottom, 96-well plate (μClear, Greiner-One 655096). The fluorescence and OD absorbance in each well was measured by Synergy 2 multi-mode microplate reader with aGen5 data analysis software. […] Fluorescence was measured at an excitation wavelength of 500 nm and an emission wavelength of 540 nm.
(§4) For an antagonist assay, overnight culture of P. aeruginosa PAO1/plasI-LVAgfp (las system) or PAO1/prhlI-LVAgfp (rhl system) in LB broth (supplemented with 300 μg/mL carbenicillin) was grown from a single colony on a LB agar plate supplemented with 300 μg/mL carbenicillin. […] The fluorescence and OD absorbance in each well was measured by Synergy 2 multi-mode microplate reader with Gen5 data analysis software. […] Fluorescence was measured at an excitation wavelength of 500 nm and an emission wavelength of 540 nm. […]

[2] = system: las quorum sensing system; experiment: las quorum sensing gene reporter assay (plasI-LVAgfp); settings: natural autoinducers present
Excerpt: as §1, §2, §3, §4

PAO1-GFP = experiment: microbe, parasite or virus in culture
Procedure: (§5) A crystal violet (CV) assay was used to measure the amount of PAO1 biofilm formed after 24 h of bacterial inoculation. The fluorescence of green fluorescent proteins (GFP) expressed by PAO1-GFP was measured to directly quantify bacterial adhesion on polystyrene black 96 well plates with and without maltose derivatives after 2 h of bacterial inoculation. To evaluate the potential of maltose derivatives as both anti-biofilm and anti-adhesion agents, they were compared to a brominated furanone (BF8) known to inhibit biofilm formation, and two generic surfactants, sodium dodecyl sulfate (SDS) and tetra (ethylene glycol) monododecyl ether (C12EG4OH). […] P. aeruginosa strain PAO1-EGFP that constitutively producing green fluorescent protein was allowed to form biofilm on sterile steel coupons.
Overnight culture of PAO1-GFP was subcultured to an OD600 of 0.01 into the 95:5 M9+:Lb medium. Subculture was allowed to reach the OD600 of 0.1 in a rotary shaker at 250 rpm and 37° C. 200 μL of the subculture was then transferred to the wells of black microtiter plate with and without (control) maltose derivatives. This black 96 well plate was then incubated in a shaker at 37° C. for 2 h. After 2 h, bacterial culture from the plate was discarded and each well was washed once with saline water (0.85 w/v % aqueous NaCl solution). Fresh 95:5 M9+:Lb medium was added to the black 96 well plate and fluorescence of the surface adhered bacteria was measured by Synergy 2 multi-mode microplate reader with Gen5 data analysis software at an excitation wavelength of 500 nm and an emission wavelength of 540 nm. Background signal from 95:5 M9+:Lb medium was eliminated from all the samples.

PAO1 biofilm = experiment: Crystal violet dye based biofilm inhibition assay, maltose derivatives (Example 1); settings: for Inhibition of PAO1 biofilm: 110 μM, 24 h, CV assay; for Anti-biofilm activity (inhibition): concentration not given
Procedure: as §5
Inhibitory effect of all the maltose hydrocarbons on P. aeruginosa biofilm formation was determined by crystal violet dye based biofilm inhibition assays. Overnight culture of wild type P. aeruginosa (PAO1) was sub cultured to an OD600 of 0.01 into the 95:5 M9+:Lb medium. 200 μL of the sub culture was aliquoted into the wells of 96 well polystyrene microtiter plate when it reached the OD600 of 0.1. Predetermined concentrations of the test compounds were then added to the respective wells containing sub culture. Sample plates were wrapped in GLAD Press n′ Seal® followed by incubation under stationary conditions for 24 h at 37° C. After incubation the media was discarded and the plates were washed with water and dried for 1 h at 37° C. The sample plates were stained with 200 μL of 0.1% aqueous solution of crystal violet (CV) and followed by incubation at ambient temperature for 20 min. The CV stain was then discarded and the plates were washed with water. The remaining biofilm adhered stain was re-solubilized with 200 μL of 30% acetic acid. After the stain was dissolved (15 minutes), 100 μL of the solubilized CV was transferred from each well into the corresponding wells of a new polystyrene microtiter dish. Biofilm inhibition was quantified by measuring the OD600 of each well in which a negative control lane wherein no biofilm was formed served as a background and was subtracted out. The percent inhibition was calculated by the comparison of the OD600 for biofilm grown in the absence of compound (control) versus biofilm grown in the presence of compound under identical conditions.
Predetermined amounts maltose derivatives stock solution was added to the 200 μL bacterial culture in 96 well plate so that the final concentration of the agent reaches the desired values of 1, 5, 10, 20, 40, 85, 113, 140 μM. Biofilm inhibition and dispersion assay was carried as described previously.

Compound | Change of GFP fluorescence, rhl reporter strain PAO1/prhlI-LVAgfp (antagonist assay) [1] | Change of GFP fluorescence, rhl reporter strain PAO1/prhlI-LVAgfp (antagonist assay) ([1]; listed as 12: SFβC) | Change of GFP fluorescence, las reporter strain PAO1/plasI-LVAgfp (antagonist assay) [2] | Change of GFP fluorescence, las reporter strain PAO1/plasI-LVAgfp (antagonist assay) ([2]; listed as 12: SFβC) | Inhibition of PAO1-EGFP adhesion on polystyrene (PAO1-GFP; 85 μM, 2 h) | Inhibition of PAO1 biofilm (PAO1 biofilm) | Anti-biofilm activity (inhibition) (PAO1 biofilm) | inhibition at 85 µM (PAO1-GFP; Pseudomonas aeruginosa, PAO1, 2 h, read-out: Inhibition of PAO1-EGFP adhesion on polystyrene) [%] | Change of GFP fluorescence, rhl reporter strain PAO1/prhlI-LVAgfp (antagonist assay) ([1]; listed as 13: SFαC) | Change of GFP fluorescence, las reporter strain PAO1/plasI-LVAgfp (antagonist assay) ([2]; listed as 13: SFαC)
CC(C)CCCC(C)CCCC(C)CCO[C@@H]1O[C@H](CO)[C@@H](O[C@@H]2O[C@H](CO)[C@@H](O)[C@H](O)[C@H]2O)[C@H](O)[C@H]1O (stereo partly drawn) [SFβC (12), saturated famesyl-β-cellobioside] | neither SFβC (12) nor SFαC (13) caused a significant change in the fluorescence | no significant change in the fluorescence | neither SFβC (12) nor SFαC (13) caused a significant change in the fluorescence | no significant change in the fluorescence | – | – | – | – | – | –
CCCCCCCCCCCCOCCOCCOCCOCCO [C12EG4OH, tetra (ethylene glycol) monododecyl ether, reference compound] | – | – | – | – | about 40% | did not show any noticeable biofilm inhibition | did not show any anti-biofilm activities | – | – | –
CCCCCCCCCCCCOS(=O)(=O)[O-].[Na+] [SDS, sodium dodecyl sulfate, reference compound] | – | – | – | – | – | did not show any noticeable biofilm inhibition | did not show any anti-biofilm activities | ~40 | – | –
CC(C)CCCC(C)CCCC(C)CCO[C@H]1O[C@H](CO)[C@@H](O[C@@H]2O[C@H](CO)[C@@H](O)[C@H](O)[C@H]2O)[C@H](O)[C@H]1O (stereo partly drawn) [SFαC (13), saturated farnesyl-α-cellobioside] | neither SFβC (12) nor SFαC (13) caused a significant change in the fluorescence | – | neither SFβC (12) nor SFαC (13) caused a significant change in the fluorescence | – | – | – | – | – | no significant change in the fluorescence | no significant change in the fluorescence

From patent US11357786B2, “Synthetic disugar hydrocarbons as natural analogs to control microbial behaviors” (Syracuse University, priority 2014, dated 2022)
